Laboratory results as given in patent publication US9657263B2 (priority 2010, dated 2017).

Tests used:
influenza B virus = tested on: influenza B virus; design: species or system BALB/c mice; settings: mouse, in vivo
influenza A virus = tested on: influenza A virus; design: species or system BALB/c mice; settings: mouse, in vivo

SMILES: CCOC(=O)C1=C[C@@H](OC(CC)CC)[C@H](NC(C)=O)[C@@H](N)C1 [Tamiflu, oseltamivir phosphate]
- clinical symptoms (influenza B virus): significant weight loss, cough, deem and messy hairs, decreased activity
- survival rate (influenza B virus): 100%
- death rate (FIG. 4a) (influenza A virus): 33%
